Data as given in US7612107B2, “Treatment and inhibition of disease conditions using flexible heteroarotinoids” (The Board of Regents of the University of Oklahoma, priority 2005, dated 2009).

How the values were obtained:
OVCAR-3 xenograft tumors = assay: Histochemical and immunohistochemical evaluation of xenograft tumors (glands, MUC-1, TUNEL); format: in vivo, mouse; conditions: 10 mg/kg/day gavage, end of treatment
Method: Statistically significant higher levels of glands and MUC-1 expression in the tumors of treated animals in comparison to controls treated with sesame oil are indicated by asterisks (*) and were determined by t-tests. For gland formation, p<0.001 for SHetA2, p=0.097 for SHetA4, p=0.001 for SHet50, and p=0.007 for 4-HPR. For MUC-1 scores, p=0.011 for SHetA2, p=0.050 for SHetA4, p=0.040 for SHet50, and p=0.001 for 4-HPR. The higher levels of TUNEL scores in the tumors of treated animals in comparison to control animals approached significance (t-test, p=0.27 for SHetA2, p=0.48 for SHetA4, p=0.20 for SHet50, and p=0.12 for 4-HPR).
On the last day of treatment, the animals were sacrificed and then the tumors were removed, fixed in neutral buffered formalin and embedded in paraffin. […] MUC-1 expression was detected in tumor sections using a mouse monoclonal antibody to human MUC-1 (Pharmingen, San Diego, Calif.) and the Histostain-Plus AEC Kit (Zymed Laboratories, San Francisco, Calif.) according to manufacturers instructions. […] Tumor sections were scored for number of glands (quantified in one H&E stained sections and 3 MUC-1-stained sections) and MUC-1 and TUNEL staining (based on staining intensity and percent positive cells). […]

Thrombospondin 4 (TSP4) = assay: Real time rt-PCR and Western blot validation, thrombospondin 4; format: cell-based; conditions: OVCAR-3 1 μM (rt-PCR); A2780 10 μM (Western)
[1] = test system: organotypic cultures of normal endometrial cells; assay: Chemoprevention in DMBA-treated endometrial organotypic cultures; format: cell-based; conditions: histology and karyometric analysis
From the text: Untreated: The specimen is cellular with both surface and mid-gel cells presence in abundance. Two cell types are clearly present. One appears to be stromal. The nuclei are thin and spindle shaped and the cytoplasm is similar. When cut in cross-section the nuclei are very small and round and hyperchromatic. The other cells have large, oval to almost boxcar nuclei with small nucleoli and abundant cytoplasm. Numerous mitosis are present. The epithelial cells are almost syncitial in nature and appear to cling to one another. With DMBA Carcinogen: The specimen is cellular. The cells present have lost their cytoplasm. There is more pleomorphism of the cells and many are very hyperchromatic. Mitoses are very numerous-approximately 2× the number in untreated. Cells no longer are together but are distinct one from another. Stromal cells intermix with the epithelial cells. […]
FIG. 19 illustrates a typical experiment in which organotypic cultures of normal endometrial cells were treated with a carcinogen called DMBA and developed the cancer phenotype. […] All segmented nuclei were then subjected to texture feature extraction using TICAS software, resulting in 95 texture features for each nucleus that were subjected to quantitative analysis.

[2] = test system: EAhy.926 endothelial cells; assay: Endothelial tube branching on matrigel; format: cell-based; conditions: 1, 5 and 10 μM; 20 hours
Method: The graph on the left provides quantification of the endothelial branches for each treatment dose.
The increased thickness of the vessels at 1 μM and the increasing proportions of solitary clumps of cells at 5 and 10 μM indicate that SHetA2 is inhibiting endothelial cell migration. To determine if this anti-angiogenic activity was due to growth inhibition or cytotoxicity. The viability of the endothelial cells treated with SHetA2 for 24 hours was evaluated. […] This confirms the therapeutic ratio observed in previous studies.

`CC1(C)CC(C)(C)c2cc(NC(=S)Nc3ccc([N+](=O)[O-])cc3)ccc2S1` [SHetA2] was tested, and the “MUC-1 expression in xenograft tumors” value (OVCAR-3 xenograft tumors; vs control) was “increase staining”, the “Gland formation in xenograft tumors” value (OVCAR-3 xenograft tumors; vs untreated control) was “greatest degree of gland induction” and the “Expression of TSP-4 at the RNA and protein levels” value (Thrombospondin 4 (TSP4)) was “inhibit expression”. For the same molecule, the “Development of the cancer phenotype after DMBA carcinogen” value [1] was “prevented the development of this phenotype” and the “Inhibition of angiogenesis: endothelial tube branching” value [2] was “dose-responsive inhibition”.
